Test results reported in patent US3949075A, “Anti-microbial compounds of 2', 4' substituted anilides of substituted nitrosalicylic acid for quadruped animals” (Ferro Corporation, priority 1974, dated 1976).
Where two headings read alike, the source gives them in different places.

How the values were obtained:
sheep = assay: Tolerance / toxicity in sheep; format: in vivo; set-up: key to Tolerance at 100 mg/kg / Tolerance at 50 mg/kg: "toxic" refers to death of sheep resulting from the use of the indicated compound at the indicated dosage; key to Tolerance: Tol.: tolerated; Tox.: toxic; Sym.: symptoms of toxic reaction
Procedure: (§1) The results of tests on sheep in a manner described, supra, using compounds of the present invention are given in Table 1, Examples 5 through 13. The numbers in the column headed "Haemonchus (15 mg/kg)" refer to the percent of parasites destroyed or expelled when the indicated compound was introduced into the rumen of sheep at a dosage of 15 milligrams per kilogram of body weight. The values under "Tolerance (mg/kg)" refer to the highest test dosage in the milligrams of anthelmintic per kilogram of body weight at which the sheep developed no toxic symptoms. "Tol." is an abbreviation for "tolerated". The symbols R1 and R2 refer to those of Formula I in these and other following examples.
(§2) The importance of the 2',4' substitution on the anilide moiety of Formula I is illustrated by the case of the dichloro substitution as summarized in Table III. […] This has been mentioned briefly hereinabove. As used herein, "toxic" refers to death of sheep resulting from the use of the indicated compound at the indicated dosage.
(§3) The data of the tables were generated using procedures previously described. The compounds tested are disubstituted and, except for Example 50 which is dibromo, are dichloro. Where the position for the substituents is other than 2' and 4', it is indicated. Under the indicated microorganisms, the values given in this and the following tables, should be read as: percentage of microorganism killed/dose in milligrams per kilogram of body weight. Under "Tolerance", the term "Tol." means "tolerated", "Tox." means "toxic", and "Sym." means "symptoms of toxic reaction", all at the dosage value which follows. It will be appreciated that there is no sharp toxicity end point in determining toxicity to living sheep.

[1] = Tolerance / toxicity in sheep; format: in vivo; set-up: key to Tolerance at 100 mg/kg / Tolerance at 50 mg/kg: "toxic" refers to death of sheep resulting from the use of the indicated compound at the indicated dosage; key to Tolerance: Tol.: tolerated; Tox.: toxic; Sym.: symptoms of toxic reaction; conditions: in vivo, Table 1, read-out: Tolerance, highest test dosage at which the sheep developed no toxic symptoms
Procedure: as §1, §2, §3

[2] = test system: Haemonchus and Fasciola hepatica; assay: Dual activity against Haemonchus and Fasciola in sheep and therapeutic ratio; format: in vivo; conditions: sheep; for overall activity ranking, in words: Table X; for dual activity relative to other isomers, in words: Table IX, listed as methyl 2'
Fasciola hepatica = assay: Test for activity against liver flukes, Fasciola hepatica, in infected sheep; format: in vivo; conditions: for inhibition in vivo at 1 mg/kg: Tables VIII and X
Procedure: (§4) Test for activity against liver flukes were conducted as follows:
(§5) Eggs of Fasciola hepatica were collected from the bile of donor sheep. The eggs were embryonated and snails were infected (the genus Lymnaea serves as intermediate host) to produce Metacercariae which are the infective forms for sheep. Each sheep was infected with 250 metacercariae intraruminally. When the infection became patent in ca. 80 days, egg counts were carried out to determine the degree of worm burden. The liver was processed to recover F. hepatica in the untreated and treated sheep.
as §3

Haemonchus contortus = assay: Percent of Haemonchus destroyed or expelled in infected sheep (egg count after treatment); format: in vivo, Haemonchus contortus (in sheep); conditions: for Haemonchus (2 mg/kg), percent of parasites destroyed or expelled / Haemonchus (5 mg/kg), percent of parasites destroyed or expelled / Haemonchus (15 mg/kg), percent of parasites destroyed or expelled: into rumen, Table 1
Procedure: Two groups of sheep were used in the tests. One group was used as a non-medicated control, while the other group was treated with the compound under investigation. Helminth-free young lambs were infected with about 10,000 filariform larvae of Haemonchus contortus. In three weeks when the infection became apparent, egg counts were made to determine the density of the worm burden.
The egg count was carried out using the following modified Stoll method. Three grams of sheep feces were taken rectally from each animal and placed in a Stoll flask. To each flask, tap water was added to the top line. The fecal pellets were too hard to break down, the flasks were closed with rubber stoppers and kept in the refrigerator for several hours. The flasks were thoroughly shaken and a 1 ml. sample was drawn from the middle using a wide mouth pipette. This 1 ml. sample was transferred to an 8 ml. plastic tube, to which enough saturated sodium chloride solution was added to reach the rim. The tubes were then centrifuged for 10 minutes at 1500 r.p.m. Then sodium chloride solution was added with a medicine dropper forming a concave miniscus. A cover glass was carefully added and the tubes were kept in a refrigerator for ten to twenty minutes. During that period, the nematode ova flowed upward and adhered to the bottom of the cover glass slip. At the end of the 20-minute period, the cover slip was carefully detached from the miniscus and transferred to a microscopic slide. The ova were then counted under a microscope equipped with 10X ocular and 10X objective lens. Each ovum under the microscope represented 20 ova in the sample.
Animals with sufficiently high egg counts were taken out of the pool and housed in experimental pens. Since the salicylanilides of the present invention are water insoluble, the compounds were first ground using a mortar and pestle and then were placed in a carboxymethyl cellulose solution. The particles were further micronized ultrasonically. The compound was then administered to two or three animals by Oesophageal gavage. Control, untreated animals, received only the carboxymethyl cellulose solution in a similar manner. On the sixth and seventh day after treatment, fecal pellets were taken from the rectum of the control as well as the treated animals and egg counts were made.
as §1, §3

[3] = test system: liver flukes of the genus Fasciola; assay: Utility against liver flukes of the genus Fasciola in sheep (oral); format: in vivo; conditions: for effect against liver flukes: 15 mg/kg
Procedure: as §4, §5
The compounds of this invention also have utility against liver flukes.

[4] = Fasciola hepatica, sheep, read-out: Fasciola hepatica, percentage of microorganism killed
[5] = Fasciola hepatica, sheep, 2 mg/kg, Tables VIII-XI, read-out: Fasciola hepatica, percentage of microorganism killed
[6] = Haemonchus contortus, sheep, Tables VIII-XI, read-out: Haemonchus, percentage of microorganism killed
[7] = Haemonchus contortus, sheep, 5 mg/kg, Tables VIII-XI, read-out: Haemonchus, percentage of microorganism killed
[8] = Haemonchus contortus, sheep, 15 mg/kg, Tables VIII-XI, read-out: Haemonchus, percentage of microorganism killed
[9] = Fasciola hepatica, sheep, Tables VIII-XI, read-out: Fasciola hepatica, percentage of microorganism killed
[10] = Fasciola hepatica, read-out: Fasciola hepatica, percentage of microorganism killed
[11] = Haemonchus contortus, iv, sheep, 15 mg/kg, Tables III and IV, read-out: Effectiveness (%) at 15 mg/kg
[12] = sheep, 5 mg/kg, Tables III and IV
[13] = Fasciola hepatica, sheep, 15 mg/kg, Tables VIII-XI, read-out: Fasciola hepatica, percentage of microorganism killed

## Cc1c([N+](=O)[O-])cc(C(C)(C)C)c(O)c1C(=O)Nc1ccc(Cl)cc1C(F)(F)F [Example 13]
sheep; 15 mg./kg., Tables VIII, X
  Tolerance: Tol.
sheep; 25 mg./kg., Tables IX, X
  Tolerance: Tox.
sheep; 50 mg./kg., Tables VIII-X
  Tolerance: Tox.
[1]
  NOAEL: ≥ 15 mg/kg
[2]
  overall activity ranking, in words: most active compounds of the invention
Fasciola hepatica; [4]
  inhibition in vivo at 1 mg/kg: 100%
Fasciola hepatica; [5]
  inhibition in vivo at 2 mg/kg: 100%
Haemonchus contortus; Haemonchus contortus, sheep, 1 mg/kg, Table X, read-out: Haemonchus, percentage of microorganism killed
  inhibition in vivo at 1 mg/kg: 76%
Haemonchus contortus; [6]
  inhibition in vivo at 2 mg/kg: 96%
Haemonchus contortus; [7]
  inhibition in vivo at 5 mg/kg: 91%
Haemonchus contortus; [8]
  inhibition in vivo at 15 mg/kg: 100%
Haemonchus contortus; sheep
  Haemonchus (2 mg/kg), percent of parasites destroyed or expelled: 96%
Haemonchus contortus; sheep, 5 mg/kg
  Haemonchus (5 mg/kg), percent of parasites destroyed or expelled: 91%
Haemonchus contortus; sheep, 15 mg/kg
  Haemonchus (15 mg/kg), percent of parasites destroyed or expelled: 100%

## Cc1c([N+](=O)[O-])cc(C(C)(C)C)c(O)c1C(=O)Nc1ccc(Br)cc1C(F)(F)F [Example 11]
sheep; 20 mg./kg., Table X
  Tolerance: Tol.
sheep; 35 mg./kg., Table X
  Tolerance: Tol.
sheep; Table 1, listed as 12
  Tolerance, highest test dosage at which the sheep developed no toxic symptoms: ≥ 35 mg/kg
[1]
  NOAEL: ≥ 20 mg/kg
[2]
  overall activity ranking, in words: most active compounds of the invention
Fasciola hepatica; Fasciola hepatica, sheep, 0.5 mg/kg, Table X, read-out: Fasciola hepatica, percentage of microorganism killed
  inhibition in vivo at 0.5 mg/kg: 97%
Fasciola hepatica; [4]
  inhibition in vivo at 1 mg/kg: 100%
Fasciola hepatica; [5]
  inhibition in vivo at 2 mg/kg: 100%
Fasciola hepatica; [9]
  inhibition in vivo at 5 mg/kg: 100%
Haemonchus contortus; [6]
  inhibition in vivo at 2 mg/kg: 99.8%
Haemonchus contortus; [7]
  inhibition in vivo at 5 mg/kg: 100%
Haemonchus contortus; sheep
  Haemonchus (2 mg/kg), percent of parasites destroyed or expelled: 99.8%
Haemonchus contortus; sheep, 5 mg/kg
  Haemonchus (5 mg/kg), percent of parasites destroyed or expelled: 100%

## Cc1c([N+](=O)[O-])cc(C(C)(C)C)c(O)c1C(=O)Nc1cc(Cl)ccc1Cl [Example 24, reference compound]
sheep; 50 mg./kg., Tables VIII-X
  Tolerance: Tol.
sheep; 50 mg/kg
  toxic effects at 50 mg./kg.: shows toxic effects
sheep; 50 mg/kg, Tables III and IV
  Tolerance at 50 mg/kg: toxic
[2]; 5 mg./kg.
  clinical effectiveness against either parasite, in words: would not be clinically effective against either parasite
Fasciola hepatica; [10]
  inhibition in vivo at 15 mg/kg: 100%
Fasciola hepatica; [9]
  inhibition in vivo at 5 mg/kg: 0%
Fasciola hepatica; sheep
  activity against Fasciola, in words: no activity
Haemonchus contortus; [11]
  inhibition in vivo at 15 mg/kg: 100%
Haemonchus contortus; Haemonchus contortus, read-out: Haemonchus, percentage of microorganism killed, sheep, 15 mg/kg, Tables VIII-XI
  inhibition in vivo at 15 mg/kg: 100%
Haemonchus contortus; [7]
  inhibition in vivo at 5 mg/kg: 61%
Haemonchus contortus; sheep, 5 mg/kg
  activity at 5 mg./kg.: 61%
Haemonchus contortus; [12]
  Effectiveness (%) at 5 mg/kg: 61%

## Cc1c(Cl)cccc1NC(=O)c1c(C)c([N+](=O)[O-])cc(C(C)(C)C)c1O [Example 28, 3-tert. butyl-3'-chloro 2', 6-dimethyl-5-nitrosalicylanilide]
sheep; 50 mg./kg., Tables VIII-X
  Tolerance: Tox.
sheep; 50 mg/kg, Tables III and IV
  Tolerance at 50 mg/kg: toxic
[3]
  effect against liver flukes: ineffective against liver flukes
Fasciola hepatica; [13]
  inhibition in vivo at 15 mg/kg: 0%
Haemonchus contortus; [11]
  inhibition in vivo at 15 mg/kg: 87%
Haemonchus contortus; [8]
  inhibition in vivo at 15 mg/kg: 87%

## Cc1cc(Cl)ccc1NC(=O)c1c(C)c([N+](=O)[O-])cc(C(C)(C)C)c1O [Example 6, 3-tert. butyl-4'-chloro-2', 6-dimethyl-5-nitrosalicylanilide]
sheep; 25 mg./kg., Tables IX, X
  Tolerance: Tol.
sheep; 50 mg./kg., Tables VIII-X
  Tolerance: Sym.
sheep; 50 mg/kg, Tables III and IV
  Tolerance at 50 mg/kg: non toxic
sheep; 100 mg./kg., Tables VIII, IX
  Tolerance: Tox.
sheep; 100 mg/kg, Tables III and IV
  Tolerance at 100 mg/kg: toxic
[1]
  NOAEL: 50 to 100 mg/kg
[2]; chloro 4' compound
  dual activity relative to other isomers, in words: much greater dual activity
[2]; chloro 4' isomer
  dual activity relative to other isomers, in words: very active at doses well below those at which other isomers are inactive
[3]; oral, 5 mg/kg, within three days
  effect against (mature) liver flukes: The same effects against mature flukes
Fasciola hepatica; [10]
  inhibition in vivo at 2 mg/kg: 0%
Fasciola hepatica; [9]
  inhibition in vivo at 5 mg/kg: 100%
Haemonchus contortus; [11]
  inhibition in vivo at 15 mg/kg: 100%
Haemonchus contortus; Haemonchus contortus, read-out: Haemonchus, percentage of microorganism killed, sheep, 5 mg/kg, Tables VIII-XI
  inhibition in vivo at 5 mg/kg: 99%
Haemonchus contortus; [6]
  inhibition in vivo at 2 mg/kg: 67%
Haemonchus contortus; [8]
  inhibition in vivo at 15 mg/kg: 100%
Haemonchus contortus; sheep
  activity against Haemonchus relative to other isomers, in words: greater activity against Haemonchus
  Haemonchus (2 mg/kg), percent of parasites destroyed or expelled: 67%
Haemonchus contortus; [12]
  Effectiveness (%) at 5 mg/kg: 95%
Haemonchus contortus; sheep, 15 mg/kg, Table VI
  Effectiveness at 15 mg/kg against Haemonchus: 100%
Haemonchus contortus; sheep, dose not given
  effective in killing or expelling Haemonchus: 100%
Haemonchus contortus; sheep, 15 mg/kg
  Haemonchus (15 mg/kg), percent of parasites destroyed or expelled: 100%

## Cc1c([N+](=O)[O-])cc(C(C)(C)C)c(O)c1C(=O)Nc1ccc(C(F)(F)F)cc1 [Example 10, 3-tert. butyl-6-methyl-5-nitro-4'-trifluoromethylsalicylanilide]
[1]
  NOAEL: 15 to 50 mg/kg
[3]
  effect against liver flukes: efficacious
Fasciola hepatica; [13]
  inhibition in vivo at 15 mg/kg: 100%
Haemonchus contortus; Haemonchus contortus, sheep, 15 mg/kg, Table V, read-out: Effectiveness at 15 mg/kg against Haemonchus
  inhibition in vivo at 15 mg/kg: 100%
Haemonchus contortus; [8]
  inhibition in vivo at 15 mg/kg: 100%
Haemonchus contortus; sheep, 15 mg/kg
  Haemonchus (15 mg/kg), percent of parasites destroyed or expelled: 100%
